Measurements: ChEMBL document CHEMBL1201862, “PubChem BioAssay data set” (2004)
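All cell lines were grown in 96-well plates and treated with compound for 48 hours. GI50 marks 50% less growth.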 Active and inactive are the calls of the source. Cut-off read from the data, not from the text of the source: active = GI50 up to about 1.1 µM and inactive = higher. Where a SMILES comes first, the peptide text is derived from it. Non-standard residues stand in square brackets, D forms with d. Residues, ends and D or L forms follow the SMILES beside them. The star is where a group is joined. *: point of attachment. Benzoyl(4-OMe) = COc1ccc(C(=O)*)cc1; 2Thi = N[CH](Cc1cccs1)C(=O)O; Cbz = O=C(OCc1ccccc1)*

Assays:
Experiment in all cases: NCI-60 cell line screen, 48 h
SK-MEL-5 = system: SK-MEL-5
NCI-H522 = system: NCI-H522
MDA-MB-231 = system: MDA-MB-231
Hs-578T = system: Hs-578T
M14 = system: M14
EKVX = system: EKVX
OVCAR-5 = system: OVCAR-5
TK-10 = system: TK-10
NCI-H226 = system: NCI-H226
COLO 205 = system: COLO 205
MDA-N = system: MDA-N
ACHN = system: ACHN
OVCAR-4 = system: OVCAR-4
Malme-3M = system: Malme-3M
KM12 = system: KM12
RPMI-8226 = system: RPMI-8226
HCT-116 = system: HCT-116
U-251 = system: U-251
HL-60 = system: HL-60
SK-MEL-2 = system: SK-MEL-2

Measured: GI50

CCC(C)C(NC(=O)C(Cc1cccs1)NC(=O)C(CC(C)C)NC(=O)C(CC(C)C)NC(=O)C(CCCCN)NC(=O)C(CCCNC(=N)N)NC(=O)c1ccc(OC)cc1)C(=O)NC(CC(C)C)C(N)=O (stereo unspecified) ({Benzoyl(4-OMe)}-RKLL[2Thi]IL-NH2; configuration not given here)
inactive: SK-MEL-5 > 100 µM | NCI-H522 > 100 µM | MDA-MB-231 > 100 µM | Hs-578T > 100 µM | M14 > 100 µM | EKVX > 100 µM | OVCAR-5 > 100 µM | TK-10 > 100 µM | NCI-H226 > 100 µM | COLO 205 > 100 µM | MDA-N > 100 µM | ACHN > 100 µM | OVCAR-4 > 100 µM | Malme-3M > 100 µM | KM12 > 100 µM | RPMI-8226 > 100 µM | HCT-116 > 100 µM | U-251 > 100 µM

N#Cc1nc(C(=O)c2ccccc2)oc1N
inactive: SK-MEL-5 > 100 µM | MDA-MB-231 > 100 µM | Hs-578T 20.9 µM | HL-60 > 100 µM | M14 > 100 µM | EKVX 65.5 µM | SK-MEL-2 > 100 µM | OVCAR-5 > 100 µM | TK-10 > 100 µM | MDA-N > 100 µM | ACHN > 100 µM | OVCAR-4 > 100 µM | KM12 > 100 µM | RPMI-8226 > 100 µM | HCT-116 > 100 µM | U-251 > 100 µM

Cc1ccc(/C=C2\NC(=S)N(CN3CCCCC3)C2=O)cc1
inactive: SK-MEL-5 33.3 µM | NCI-H522 35.8 µM | MDA-MB-231 > 100 µM | Hs-578T 41.4 µM | M14 55.1 µM | EKVX 46.3 µM | SK-MEL-2 > 100 µM | OVCAR-5 > 100 µM | TK-10 69.3 µM | NCI-H226 55.7 µM | COLO 205 17 µM | MDA-N 65.2 µM | ACHN 43.2 µM | OVCAR-4 39.4 µM | Malme-3M 85.3 µM | KM12 > 100 µM | RPMI-8226 32.2 µM | HCT-116 36.6 µM | U-251 48.6 µM

CCOC(=O)CCC(NC(=O)CNC(=O)CNC(=O)C(CCC(=O)OCC)NC(=O)C(CCC(=O)OCC)NC(=O)C(CCC(=O)OCC)NC(=O)OCc1ccccc1)C(=O)NC(CCC(=O)OCC)C(=O)NC(CCC(=O)OCC)C(=O)OCC (stereo unspecified) (Cbz-E(OEt)E(OEt)E(OEt)GGE(OEt)E(OEt)E(OEt)-OEt; configuration not given here)
inactive: SK-MEL-5 > 75 µM | NCI-H522 > 75 µM | MDA-MB-231 > 75 µM | Hs-578T > 75 µM | M14 > 75 µM | EKVX > 75 µM | SK-MEL-2 > 75 µM | OVCAR-5 > 75 µM | TK-10 > 75 µM | COLO 205 > 75 µM | MDA-N > 75 µM | ACHN > 75 µM | OVCAR-4 > 75 µM | Malme-3M > 75 µM | KM12 > 75 µM | RPMI-8226 > 75 µM | HCT-116 > 75 µM | U-251 > 75 µM

COc1ccc(N2C(=O)/C(=C\c3cc(OC)c(OC)c(OC)c3)S(=O)(=O)C2c2ccccc2)cc1 (stereo unspecified)
inactive: SK-MEL-5 14.2 µM | NCI-H522 23.1 µM | MDA-MB-231 34.8 µM | Hs-578T 58.3 µM | M14 19.4 µM | SK-MEL-2 8.55 µM | TK-10 > 100 µM | NCI-H226 30.8 µM | COLO 205 4.39 µM | MDA-N 13.9 µM | ACHN 48.3 µM | OVCAR-4 42 µM | Malme-3M 47.4 µM | KM12 29.2 µM | RPMI-8226 12.2 µM | HCT-116 18.8 µM | U-251 11.3 µM

NC(=O)c1ccc(NS(=O)(=O)c2ccc(N)cc2)nc1
inactive: SK-MEL-5 > 100 µM | MDA-MB-231 > 100 µM | Hs-578T > 100 µM | HL-60 > 100 µM | M14 > 100 µM | EKVX > 100 µM | SK-MEL-2 > 100 µM | OVCAR-5 > 100 µM | TK-10 > 100 µM | NCI-H226 > 100 µM | COLO 205 > 100 µM | MDA-N > 100 µM | ACHN > 100 µM | OVCAR-4 > 100 µM | Malme-3M > 100 µM | KM12 > 100 µM | RPMI-8226 > 100 µM | HCT-116 > 100 µM | U-251 > 100 µM

O=C(O)C1CC(O)CN1 (stereo unspecified)
inactive: SK-MEL-5 > 100 µM | MDA-MB-231 > 100 µM | Hs-578T > 100 µM | HL-60 > 100 µM | M14 > 100 µM | EKVX > 100 µM | SK-MEL-2 > 100 µM | OVCAR-5 > 100 µM | TK-10 > 100 µM | NCI-H226 > 100 µM | COLO 205 > 100 µM | MDA-N > 100 µM | ACHN > 100 µM | OVCAR-4 > 100 µM | Malme-3M > 100 µM | KM12 > 100 µM | RPMI-8226 > 100 µM | HCT-116 > 100 µM | U-251 > 100 µM

O=c1ccn(C2OC(CO)C(O)C2F)c(=O)n1Cc1ccccc1 (stereo unspecified)
inactive: SK-MEL-5 > 100 µM | NCI-H522 > 100 µM | MDA-MB-231 > 100 µM | Hs-578T > 100 µM | HL-60 > 100 µM | EKVX > 100 µM | OVCAR-5 > 100 µM | TK-10 > 100 µM | NCI-H226 > 100 µM | COLO 205 > 100 µM | MDA-N > 100 µM | ACHN > 100 µM | Malme-3M > 100 µM | KM12 > 100 µM | RPMI-8226 > 100 µM | HCT-116 > 100 µM | U-251 > 100 µM

COC(=O)[C@]1(C)CCCC2(C)C3=C(CCC21)CC1(CC3)SCCS1 (stereo partly specified)
inactive: SK-MEL-5 > 10 µM | NCI-H522 > 10 µM | MDA-MB-231 > 10 µM | Hs-578T > 10 µM | HL-60 > 10 µM | M14 > 10 µM | EKVX > 10 µM | TK-10 > 10 µM | COLO 205 > 10 µM | MDA-N > 10 µM | ACHN > 10 µM | OVCAR-4 > 10 µM | Malme-3M > 10 µM | KM12 > 10 µM | RPMI-8226 > 10 µM | HCT-116 > 10 µM | U-251 > 10 µM

CCCc1cc(=O)oc2c3c(c4c(c12)OC(C)(C)C=C4)O[C@@H](C)[C@H](C)C3=O
inactive: SK-MEL-5 15.8 µM | NCI-H522 13.6 µM | MDA-MB-231 11.8 µM | Hs-578T 15.3 µM | HL-60 4.99 µM | EKVX 12.2 µM | OVCAR-5 17.9 µM | TK-10 20.7 µM | NCI-H226 18.2 µM | COLO 205 18.6 µM | MDA-N 17.3 µM | ACHN 12.4 µM | Malme-3M 19.5 µM | KM12 13.6 µM | RPMI-8226 3.83 µM | HCT-116 10.4 µM | U-251 23.4 µM

CSc1nc(Nc2ccccc2Cl)c2c(N)nn(C)c2n1
inactive: SK-MEL-5 > 100 µM | NCI-H522 75.2 µM | MDA-MB-231 28.3 µM | Hs-578T 17 µM | M14 > 100 µM | EKVX 24.4 µM | SK-MEL-2 > 100 µM | OVCAR-5 > 100 µM | TK-10 > 100 µM | NCI-H226 > 100 µM | COLO 205 > 100 µM | MDA-N > 100 µM | ACHN 13.1 µM | OVCAR-4 > 100 µM | Malme-3M > 100 µM | KM12 > 100 µM | RPMI-8226 > 100 µM | HCT-116 > 100 µM | U-251 > 100 µM
